We go through 26 molecules from patent US9908868B2, “Isoindolinone compounds as GPR119 modulators for the treatment of diabetes, obesity, dyslipidemia and related disorders” (SANOFI, priority 2014, dated 2018).

The target in this assay is T1, human GPR119 (Homo sapiens, UniProt Q8TDV5).
T1 construct: expressed in transfected cells
T1 sequence (Q8TDV5 1-335): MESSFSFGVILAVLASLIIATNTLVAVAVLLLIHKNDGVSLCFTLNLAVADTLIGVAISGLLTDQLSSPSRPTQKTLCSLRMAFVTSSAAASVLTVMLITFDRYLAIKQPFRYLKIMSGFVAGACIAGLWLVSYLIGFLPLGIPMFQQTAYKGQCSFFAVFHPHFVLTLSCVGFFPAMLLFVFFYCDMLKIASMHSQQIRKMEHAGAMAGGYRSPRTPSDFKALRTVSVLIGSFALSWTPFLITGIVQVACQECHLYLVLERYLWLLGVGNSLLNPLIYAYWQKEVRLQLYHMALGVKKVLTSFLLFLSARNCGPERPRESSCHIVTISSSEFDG
The assay can be described thus: Functional cellular assay measuring GPR119-mediated cAMP release (HTRF) in HEK-293 cells stably expressing recombinant human GPR119. In kind it is cell-based. The following applies: cAMP response, cell line expressing human GPR119, 30 minutes at room temperature. As for the experimental part: Functional Cellular Assays Measuring GPR119-Mediated cAMP Release
Compounds of the invention, which are agonists of GPR119, were characterized by functional assays measuring the cAMP response of HEK-293 cell lines stably expressing recombinant GPR119 from man, mouse or rat, or by using a hamster cell line HIT-T15 expressing GPR119 endogenously. The cAMP content was determined using a kit based on homogenous time-resolved fluorescence (HTRF) from Cisbio Corp. (cat. no. 62AM4PEC). For preparation, cells were split into T175 culture flasks and grown to near confluency in medium (DMEM/10% FCS for HEK-293 cells, and F-12K medium/10% horse serum/2.5% FCS for HIT-T15 cells, respectively). Medium was then removed and cells washed with PBS lacking calcium and magnesium ions, followed by proteinase treatment with accutase (Sigma-Aldrich, cat. no. A6964). Detached cells were washed and resuspended in assay buffer (1×HBSS; 20 mM HEPES, 0.1% BSA, 2 mM IBMX) and cellular density determined. They were then diluted to 400000 cells/mL and 25 μL-aliquots dispensed to the wells of 96-well plates. For measurement, 25 μL of test compound in assay buffer was added and incubated for 30 minutes at room temperature. After addition of HTRF reagents diluted in lysis buffer, the plates were incubated for 1 hour, followed by measuring the fluorescence ratio at 665 vs. 620 nm. Potency of the agonists was quantified by determining the concentrations that caused 50% of the maximal response/activation (EC50). See Table 7 for exemplary data obtained using the cell line expressing human GPR119.
In general terms: TR-FRET usually uses a lanthanide donor and a delayed reading to cut background.

By EC50 is commonly meant the concentration that produces a half-maximal response. `CN(C)C(=O)C1NC(=O)c2cc(N3CC[C@@H](Oc4ccc(OCC5CC5)nc4)C3=O)ccc2N1C` (single isomer, unassigned) [Example 1-41]: the half-maximal effective concentration (EC50) was 2030 nM.

`CN(C)C(=O)C1NC(=O)c2cc(N3CC[C@@H](Oc4ccc(OCC5CC5)nc4)C3=O)ccc2N1C` (single isomer, unassigned) [Example 1-42]: the EC50 is 366 nM.

As for `CC(C)(C)OC(=O)CN1Cc2c(F)cc(N3CC[C@@H](Oc4ccc(OCC5CC5)nc4)C3=O)cc2C1=O` [Example 1-01, Tert-butyl 2-[6-[(3R)-3-[[6-(cyclopropylmethoxy)-3-pyridyl]oxy]-2-oxo-pyrrolidin-1-yl]-4-fluoro-1-oxo-isoindolin-2-yl]acetate], the EC50 came to 89 nM.

As to `CC(C(=O)O)N1Cc2ccc(N3CC[C@@H](Oc4ccc(OCC5CC5)nc4)C3=O)cc2C1=O` (stereo partly drawn) [Example 1-02, 2-[6-[(3R)-3-[[6-(cyclopropylmethoxy)-3-pyridyl]oxy]-2-oxo-pyrrolidin-1-yl]-1-oxo-isoindolin-2-yl]propanoic acid], the EC50 came to 2030 nM.

Regarding `CN1C(=O)c2cc(N3CC[C@@H](Oc4ccc(OCC5CC5)nc4)C3=O)ccc2C1CC(=O)O` (stereo partly drawn) [Example 1-03, 2-[5-[(3R)-3-[[6-(cyclopropylmethoxy)-3-pyridyl]oxy]-2-oxo-pyrrolidin-1-yl]-2-methyl-3-oxo-isoindolin-1-yl]acetic acid], the EC50 was determined as 10900 nM.

Consider `COC(=O)C(C)N1Cc2ccc(N3CC[C@@H](Oc4ccc(OCC5CC5)nc4)C3=O)cc2C1=O` (stereo partly drawn) [Example 1-04, methyl 2-[6-[(3R)-3-[[6-(cyclopropylmethoxy)-3-pyridyl]oxy]-2-oxo-pyrrolidin-1-yl]-1-oxo-isoindolin-2-yl]propanoate], for which the EC50 was determined as 540 nM.

Turning to `COC(=O)CC1c2ccc(N3CC[C@@H](Oc4ccc(OCC5CC5)nc4)C3=O)cc2C(=O)N1C` (stereo partly drawn) [Example 1-05, methyl 2-[5-[(3R)-3-[[6-(cyclopropylmethoxy)-3-pyridyl]oxy]-2-oxo-pyrrolidin-1-yl]-2-methyl-3-oxo-isoindolin-1-yl]acetate], the EC50 came out at 313 nM.

Regarding `O=C1OCCC1N1Cc2ccc(N3CC[C@@H](Oc4ccc(OCC5CC5)nc4)C3=O)cc2C1=O` (stereo partly drawn) [Example 1-06, 6-[(3R)-3-[[6-(cyclopropylmethoxy)-3-pyridyl]oxy]-2-oxo-pyrrolidin-1-yl]-2-(2-oxotetrahydrofuran-3-yl)isoindolin-1-one], the EC50 turned out to be 151 nM.

Consider `CN(C)C(=O)CC1c2ccc(N3CC[C@@H](Oc4ccc(OCC5CC5)nc4)C3=O)cc2C(=O)N1C` (stereo partly drawn) [Example 1-07, 2-[5-[(3R)-3-[[6-(cyclopropylmethoxy)-3-pyridyl]oxy]-2-oxo-pyrrolidin-1-yl]-2-methyl-3-oxo-isoindolin-1-yl]-N,N-dimethyl-acetamide], for which the EC50 stood at 1900 nM.

As for `CCCN1Cc2ccc(N3CC[C@@H](Oc4ccc(OCC5CC5)nc4)C3=O)cc2C1=O` [Example 1-08, 6-[(3R)-3-[[6-(cyclopropylmethoxy)-3-pyridyl]oxy]-2-oxo-pyrrolidin-1-yl]-2-propyl-isoindolin-1-one], the EC50 came out at 1050 nM.

Turning to `CC(C)Sc1ccc(O[C@@H]2CCN(c3ccc4c(c3)C(=O)N(CC(=O)N(C)C)C4)C2=O)cn1` [Example 1-09, 2-[6-[(3R)-3-[(6-isopropylsulfanyl-3-pyridyl)oxy]-2-oxo-pyrrolidin-1-yl]-1-oxo-isoindolin-2-yl]-N,N-dimethyl-acetamide], the EC50 amounted to 163 nM.

As for `Cn1nnc(N2Cc3ccc(N4CC[C@@H](Oc5ccc(OCC6CC6)nc5)C4=O)cc3C2=O)n1` [Example 1-10, 6-[(3R)-3-[[6-(cyclopropylmethoxy)-3-pyridyl]oxy]-2-oxo-pyrrolidin-1-yl]-2-(2-methyltetrazol-5-yl)isoindolin-1-one], the EC50 was determined as 267 nM.

On to `CN(C)C(=O)CN1Cc2ncc(N3CC[C@@H](Oc4ccc(OCC5CC5)nc4)C3=O)cc2C1=O` [Example 1-11, 2-[3-[(3R)-3-[[6-(cyclopropylmethoxy)-3-pyridyl]oxy]-2-oxo-pyrrolidin-1-yl]-5-oxo-7H-pyrrolo[3,4-b]pyridin-6-yl]-N,N-dimethyl-acetamide], for which the EC50 came out at 202 nM.

`CN(C)C(=O)CN1C(=O)c2cc(N3CC[C@@H](Oc4ccc(OCC5CC5)nc4)C3=O)ccc2C1(C)C` [Example 1-12, 2-[5-[(3R)-3-[[6-(cyclopropylmethoxy)-3-pyridyl]oxy]-2-oxo-pyrrolidin-1-yl]-1,1-dimethyl-3-oxo-isoindolin-2-yl]-N,N-dimethyl-acetamide]: the EC50 amounted to 29400 nM.

Regarding `CC1c2ccc(N3CC[C@@H](Oc4ccc(OCC5CC5)nc4)C3=O)cc2C(=O)N1CC(=O)N(C)C` (stereo partly drawn) [Example 1-13, 2-[5-[(3R)-3-[[6-(cyclopropylmethoxy)-3-pyridyl]oxy]-2-oxo-pyrrolidin-1-yl]-1-methyl-3-oxo-isoindolin-2-yl]-N,N-dimethyl-acetamide], the EC50 is 237 nM.

Turning to `CC1c2ccc(N3CC[C@@H](Oc4ccc(OCC5CC5)nc4)C3=O)cc2C(=O)N1CC(=O)O` (stereo partly drawn) [Example 1-14, 2-[5-[(3R)-3-[[6-(cyclopropylmethoxy)-3-pyridyl]oxy]-2-oxo-pyrrolidin-1-yl]-1-methyl-3-oxo-isoindolin-2-yl]acetic acid], the concentration for a half-maximal effect (EC50) was 4440 nM.

Regarding `COC(=O)CN1C(=O)c2cc(N3CC[C@@H](Oc4ccc(OCC5CC5)nc4)C3=O)ccc2C1C` (stereo partly drawn) [Example 1-15, methyl 2-[5-[(3R)-3-[[6-(cyclopropylmethoxy)-3-pyridyl]oxy]-2-oxo-pyrrolidin-1-yl]-1-methyl-3-oxo-isoindolin-2-yl]acetate], the EC50 came to 221 nM.

Turning to `CN(C)C(=O)CN1Cc2ncc(N3CC[C@@H](Oc4ccc(C(=O)CC5CC5)cc4)C3=O)cc2C1=O` [Example 1-16, 2-[3-[(3R)-3-[4-(2-cyclopropylacetyl)phenoxy]-2-oxo-pyrrolidin-1-yl]-5-oxo-7H-pyrrolo[3,4-b]pyridin-6-yl]-N,N-dimethyl-acetamide], the EC50 was found to be 360 nM.

`CS(=O)(=O)CN1Cc2c(F)cc(N3CC[C@@H](Oc4ccc(OCC5CC5)nc4)C3=O)cc2C1=O` [Example 1-17, 6-[(3R)-3-[[6-(cyclopropylmethoxy)-3-pyridyl]oxy]-2-oxo-pyrrolidin-1-yl]-4-fluoro-2-(methylsulfonylmethyl)isoindolin-1-one]: the EC50 amounted to 30 nM.

Regarding `Cn1nnc(CN2Cc3c(F)cc(N4CC[C@@H](Oc5ccc(OCC6CC6)nc5)C4=O)cc3C2=O)n1` [Example 1-18, 6-[(3R)-3-[[6-(cyclopropylmethoxy)-3-pyridyl]oxy]-2-oxo-pyrrolidin-1-yl]-4-fluoro-2-[(2-methyltetrazol-5-yl)methyl]isoindolin-1-one], the EC50 came out at 65 nM.

For the molecule `C[S+]([O-])CN1Cc2c(F)cc(N3CC[C@@H](Oc4ccc(OCC5CC5)nc4)C3=O)cc2C1=O` (stereo partly drawn) [Example 1-19, 6-[(3R)-3-[[6-(cyclopropylmethoxy)-3-pyridyl]oxy]-2-oxo-pyrrolidin-1-yl]-4-fluoro-2-(methylsulfinylmethyl)isoindolin-1-one], the EC50 came to 71 nM.

For `CSCN1Cc2c(F)cc(N3CC[C@@H](Oc4ccc(OCC5CC5)nc4)C3=O)cc2C1=O` [Example 1-20, 6-[(3R)-3-[[6-(cyclopropylmethoxy)-3-pyridyl]oxy]-2-oxo-pyrrolidin-1-yl]-4-fluoro-2-(methylsulfanylmethyl)isoindolin-1-one], the EC50 amounted to 46 nM.

Take `CN(C)C(=O)CN1Cc2c(F)cc(N3CC[C@@H](Oc4ccc(OC5CC5)nc4)C3=O)cc2C1=O` [Example 1-21, 2-[6-[(3R)-3-[[6-(cyclopropoxy)-3-pyridyl]oxy]-2-oxo-pyrrolidin-1-yl]-4-fluoro-1-oxo-isoindolin-2-yl]-N,N-dimethyl-acetamide]: the EC50 is 346 nM.

For `COC(=O)CN1Cc2ccc(N3CC[C@@H](Oc4ccc(OC5CC5)nc4)C3=O)cc2C1=O` [Example 1-22, methyl 2-[6-[(3R)-3-[[6-(cyclopropoxy)-3-pyridyl]oxy]-2-oxo-pyrrolidin-1-yl]-1-oxo-isoindolin-2-yl]acetate], the EC50 was determined as 242 nM.

For `CN1Cc2c(F)cc(N3CC[C@@H](Oc4ccc(OCC5CC5)nc4)C3=O)cc2C1=O` [Example 1-23, 6-[(3R)-3-[[6-(cyclopropylmethoxy)-3-pyridyl]oxy]-2-oxo-pyrrolidin-1-yl]-4-fluoro-2-methyl-isoindolin-1-one], the EC50 stood at 695 nM.

Take `O=C1[C@H](Oc2ccc(OCC3CC3)nc2)CCN1c1ccc2[nH][nH]c(=O)c2c1` [Example 1-24, 5-[(3R)-3-[[6-(cyclopropylmethoxy)-3-pyridyl]oxy]-2-oxo-pyrrolidin-1-yl]-1,2-dihydroindazol-3-one]: the EC50 is 14300 nM.
